We go through three compounds from US20240376555A1, “TNRA MODIFICATION-SENSITIVE CODON TRANSLATION ASSAY COMPRISING LUMINESCENCE-BASED REPORTER SYSTEM” (priority 2021, published 2024).

Entries after “also recorded” stand apart in the source; their conditions may differ.

For test [1], the system named is U34 enzymes. Briefly: Dual luciferase (NanoLuc/Firefly) tRNA modification-sensitive codon translation assay in A549 cells. In kind it is cell-based. Conditions: A549 human lung cells; time and concentration series; six U34 codon (xAA) repeats upstream of NanoLuc, xAG upstream of FireflyLuc; FIG. 1g-h. As for the experimental part:
(§1) In the preferred embodiment, the luminescence-based reporter system is the Nano-Glo® Dual-Luciferase® Reporter (NanoDLR™) Assay System commercially available from Promega. The medium may be removed and 40 microliters of complete cell culture medium may be added. The plate may be equilibrated at room temperature for 15 min. 40 microliters of ONE-Glo™ EX Reagent may be added for each well. The plates may be mixed and shaked and protected from light for 10 minutes. Then the luminescence may be read. 40 microliters of NanoDLR™ Stop and GloR Reagent may be freshly prepared and added to each well. The plates may be mixed and shaked and protected from light for 10 minutes. The luminescence may be read by any luminescence reader, preferably. The luminescence may be analyzed by calculating the Nanoluc/Firefly ratio.
(§2) Cells (MDA-MB231, M395 or A549) were stably transduced by the lentiviral system (pLV-Puro-hPGK) and 1:3 Mirus transfecting agent [Close et al, Mol Cell 2006].
(§3) Cells were culture in a suitable culture system in the presence of the candidate tRNA modification modulator.
(§4) Signals were detected by any luminescence reader, for example the TECAN Infinite M2000 Pro. Read time can be between 1 and 3 seconds with automatic attenuation.
(§5) No effect was seen using a construct lacking the codon repetitions (FIG. 1e). […]

Test [2] has as its system U34 enzymes. Briefly: Dual luciferase (NanoLuc/Firefly) tRNA modification-sensitive codon translation assay in M395 cells. Conditions: M395 human primary melanoma cells; 250 nM for 24 hours; six U34 codon (xAA) repeats upstream of NanoLuc, xAG upstream of FireflyLuc; FIG. 1f. In kind it is cell-based. How it is done:
as §1, §2, §3, §4, §5

Turning to `Cn1c(=O)n(-c2ccc(C(C)(C)C#N)cc2)c2c3cc(-c4cnc5ccccc5c4)ccc3ncc21` [NVP-BEZ235], the luciferase specific signal result in the test on U34 enzymes [1] was “decreased luciferase specific signal in a time and concentration-dependent manner; also recorded: decreased luciferase specific signal in a time and concentration dependent manner”. Still for that read-out and setting: in the case of `CC(C)n1nc(-c2cc3cc(O)ccc3[nH]2)c2c(N)ncnc21` [PP242] it was “decreased luciferase specific signal in a time and concentration-dependent manner; also recorded: decreased luciferase specific signal in a time and concentration dependent manner”. On to insulin, for which the “luciferase specific ratio (NanoLuc/Firefly)” value in the test with U34 enzymes [2] is reported as “increased luciferase specific ratio”.
